# Like-named read-outs stand apart in the source and are kept apart here.
# What was measured:
# [1] = test system: Enterobacter aerogenes 1402-10; assay: MIC and FIC, Nutrient agar (Tests 2, 3); type: cell-based; conditions: Klebsiella aerogenes, 140210; E. aerogenes 1402-10; 20 h; read-out: MIC
# [2] = test system: Klebsiella pneumoniae NCTC 418; assay: MIC and FIC, Nutrient agar (Tests 2, 3); type: cell-based; conditions: NCTC418, K. pneumoniae NCTC 418, 20 h
# Description: (§9) After the incubation was carried out at 37° C. for 20 hours, MIC values were determined.
# Proteus morganii 1433-2 = assay: MIC and FIC, Nutrient agar (Tests 2, 3); type: cell-based; conditions: Morganella morganii, 14332; P. morganii 1433-2; 20 h
# Description: as §9
# [3] = test system: Salmonella typhimurium 1406; assay: MIC and FIC, Nutrient agar (Tests 2, 3); type: cell-based; conditions: Salmonella enterica, 20 h
# [4] = test system: Serratia marcescens 1421-4; assay: MIC and FIC, Nutrient agar (Tests 2, 3); type: cell-based
# [5] = test system: Alcaligenes faecalis 1311-1; assay: MIC and FIC, Nutrient agar (Test 2); type: cell-based; conditions: 13111, A. faecalis 1311-1, 20 h
# Description: as §9
# (§10) FIC values and FIC Index were calculated in substantially the same manner as described in Test 1.
# [6] = test system: Proteus mirabilis 1432-75; assay: MIC and FIC, Nutrient agar (Tests 2, 3); type: cell-based
# [7] = test system: Shigella flexneri Ia EW-8; assay: MIC and FIC, Nutrient agar (Test 2); type: cell-based; conditions: IAEW8, S. flexneri Ia EW-8, 20 h
# Description: as §9
# [8] = test system: Salmonella paratyphi A-1015; assay: MIC and FIC, Nutrient agar (Test 2); type: cell-based; conditions: Salmonella enterica; S. paratyphi A-1015; 20 h
# Description: as §9, §10
# [9] = test system: Staphylococcus epidermidis 1601-1; assay: MIC and FIC, Nutrient agar (Tests 2, 3); type: cell-based; conditions: 16011, S. epidermidis 1601-1, 20 h
# Description: as §9
# [10] = test system: Proteus vulgaris IAM-1025; assay: MIC and FIC, Nutrient agar (Test 2); type: cell-based; conditions: IAM1025, P. vulgaris IAM-1025, 20 h
# Description: as §9, §10
# [11] = test system: Enterobacter cloacae 1401-4; assay: MIC and FIC, Nutrient agar (Tests 2, 3); type: cell-based; conditions: E. cloacae 1401-4
# [12] = test system: Salmonella enteritidis 1891; assay: MIC and FIC, Nutrient agar (Test 2); type: cell-based; conditions: Salmonella enterica; S. enteritidis 1891; 20 h
# Description: as §9
# [13] = test system: Pseudomonas aeruginosa 1101-68; assay: MIC and FIC, Nutrient broth (Test 1); type: cell-based; conditions: P. aeruginosa 1101-68
# Description: (§1) Further, in order to observe the degree of synergistic antimicrobial activity, Fractional Inhibitory Concentration (FIC) values and FIC Index were calculated from the determined MIC values according to the following calculation method, respectively.
# (§2) In the case that the combination ratio of a mixture of monosodium salt of 3-(N-acetyl-N-hydroxyamino)propylphosphonic acid and monosodium salt of nocardicin A is m:n (by weight), each of FIC values and FIC indexes was calculated according to the following equations. [formula]
# [14] = test system: Serratia marcescens 1421-5; assay: MIC and FIC, Nutrient broth (Test 1); type: cell-based; conditions: S. marcescens 1421-5
# Description: as §1, §2
# [15] = test system: Klebsiella pneumoniae 1391-5; assay: MIC and FIC, Nutrient broth (Test 1); type: cell-based; conditions: K. pneumoniae 1391-5
# Description: as §1, §2
# [16] = test system: Pseudomonas aeruginosa 1101-64; assay: MIC and FIC, Nutrient broth (Test 1); type: cell-based; conditions: P. aeruginosa 1101-64
# Description: as §1, §2
# [17] = test system: Pseudomonas aeruginosa 1101-67; assay: MIC and FIC, Nutrient broth (Test 1); type: cell-based; conditions: P. aeruginosa 1101-67
# Description: as §1, §2
# [18] = test system: Klebsiella pneumoniae 1391-2; assay: MIC and FIC, Nutrient broth (Test 1); type: cell-based; conditions: K. pneumoniae 1391-2
# Description: as §1, §2
# Escherichia coli 1341-35 = assay: MIC and FIC, Nutrient broth (Test 1); type: cell-based; conditions: E. coli 1341-35
# Description: as §1, §2
# [19] = test system: Klebsiella pneumoniae 1391-3; assay: MIC and FIC, Nutrient broth (Test 1); type: cell-based; conditions: K. pneumoniae 1391-3
# Description: as §1, §2
# Escherichia coli 1341-27 = assay: MIC and FIC, Nutrient broth (Test 1); type: cell-based; conditions: E. coli 1341-27
# Description: as §1, §2
# [20] = test system: Pseudomonas aeruginosa 1101-66; assay: MIC and FIC, Nutrient broth (Test 1); type: cell-based; conditions: P. aeruginosa 1101-66
# Description: as §1, §2
# [21] = test system: Pseudomonas aeruginosa 1101-7; type: in vivo, mice (ICR-strain male); conditions: P. aeruginosa 1101-7
# Description: (§3) ICR-strain male mice weighing 23-25 g (10 mice per one group) were used. A prescribed amount of the pathogenic bacteria suspended in 5% aqueous mucin suspension (0.5 ml.) was inoculated intraperitoneally into each mouse. One hour after the inoculation, the antibiotics as mentioned in the following table were administered subcutaneously, and then survival of the test mice was measured one week after the infection to determine ED50 value.
# (§4) Incidentally, FIC values and FIC index in this in vivo test also calculated from the determined ED50 values according to the following calculation method.
# (§5) On the basis of the fact that the combination ratio of a mixture of monosodium salt of 3-(N-acetyl-N- hydroxyamino)propylphosphonic acid and monosodium salt of nocardicin A is 1:1 (by weight), each of FIC values and FIC index was calculated according to the following equations.
# (§6) FIC of monosodium salt of 3-(N-acetyl-N-hydroxyamino)propylphosphonic acid=1/2 C'ab/A'o
# (§7) FIC of monosodium salt of nocardicin A=1/2 C'ab/B'o
# (§8) FIC index=1/2 C'ab/A'o+1/2 C'ab/B'o
# [22] = test system: Pseudomonas aeruginosa 1101-5; type: in vivo, mice (ICR-strain male); conditions: P. aeruginosa 1101-5
# Description: as §3, §4, §5, §6, §7, §8
# [23] = test system: Pseudomonas aeruginosa 1101-63; assay: microbe, parasite or virus in culture; type: cell-based; conditions: P. aeruginosa 1101-63
# Description: as §1, §2
# [24] = test system: Serratia marcescens 1421-4; assay: microbe, parasite or virus in culture; type: cell-based; conditions: S. marcescens 1421-4
# Description: as §1, §2
# [25] = test system: Klebsiella pneumoniae 1391-1; assay: microbe, parasite or virus in culture; type: cell-based; conditions: K. pneumoniae 1391-1
# Description: as §1, §2
# [26] = test system: Serratia marcescens 1421-3; assay: microbe, parasite or virus in culture; type: cell-based; conditions: S. marcescens 1421-3
# Description: as §1, §2
# [27] = test system: Serratia marcescens 1421-1; assay: microbe, parasite or virus in culture; type: cell-based; conditions: S. marcescens 1421-1
# Description: as §1, §2
# Proteus vulgaris 7 = assay: MIC and FIC, Nutrient agar (Tests 7, 9); type: cell-based; conditions: Proteus vulgaris; P. vulgaris 7; 18 h; read-out: MIC
# [28] = test system: Escherichia coli 1341-18R^+; assay: MIC and FIC, Nutrient agar (Test 3); type: cell-based; conditions: 20 h
# [29] = test system: Pseudomonas aeruginosa 1101-76; assay: MIC and FIC, Nutrient agar (Test 3); type: cell-based; conditions: Pseudomonas aeruginosa, 110176; P. aeruginosa 1101-76; 20 h; read-out: MIC
# Citrobacter freundii 35 = assay: MIC and FIC, Nutrient agar (Tests 6, 7, 9); type: cell-based; conditions: Citrobacter freundii; C. freundii 35; 18 h; read-out: MIC
# Proteus rettgeri 1434-3 = assay: MIC and FIC, Nutrient agar (Test 3); type: cell-based; conditions: Providencia rettgeri, 14343; P. rettgeri 1434-3; 20 h
# Description: as §9, §10
# [30] = Serratia marcescens, 14214, 20 h
# [31] = s.c. 1 h after i.p. inoculation, survival at one week
compound,measurement,setting,value
"CC1(C)S[C@@H]2[C@H](NC(=O)[C@H](N)c3ccccc3)C(=O)N2[C@H]1C(=O)O [B (Table 2), ampicillin]",MIC,[1],200 µg/mL
same,MIC,[2],12.5 µg/mL
same,MIC,Proteus morganii 1433-2,25 µg/mL
same,MIC,[3]; TYPHIMURIUM,0.39 µg/mL
same,MIC,[4]; [30],25 µg/mL
same,MIC,[5],6.25 µg/mL
same,MIC,"[6]; Proteus mirabilis, 143275, P. mirabilis 1432-75, 20 h, read-out: MIC",0.39 µg/mL
same,MIC,[7],0.78 µg/mL
same,MIC,[8],0.39 µg/mL
same,MIC,[9],0.2 µg/mL
same,MIC,[10],0.78 µg/mL
same,MIC,"[11]; Enterobacter cloacae, 14014, 20 h",100 µg/mL
same,MIC,[12],0.39 µg/mL
"N[C@H](CCOc1ccc(/C(=N/O)C(=O)N[C@H]2CN([C@@H](C(=O)O)c3ccc(O)cc3)C2=O)cc1)C(=O)O [B (Table 1), nocardicin A]",MIC,[2],200 µg/mL
same,FIC,[13]; in 1:1 mixture C,0.250
same,MIC,"[13]; Pseudomonas aeruginosa, 110168, 20 h, read-out: MIC",100 µg/mL
same,FIC,[14]; in 1:1 mixture C,0.063
same,MIC,"[14]; Serratia marcescens, 14215, 20 h, read-out: MIC",200 µg/mL
same,FIC,[15]; in 1:1 mixture C,0.125
same,MIC,"[15]; Klebsiella pneumoniae, 13915, 20 h, read-out: MIC",800 µg/mL
same,FIC,[16]; in 1:1 mixture C,0.125
same,MIC,"[16]; Pseudomonas aeruginosa, 110164, 20 h, read-out: MIC",200 µg/mL
same,FIC,[17]; in 1:1 mixture C,0.250
same,MIC,"[17]; Pseudomonas aeruginosa, 110167, 20 h, read-out: MIC",200 µg/mL
same,FIC,[18]; in 1:1 mixture C,0.250
same,MIC,"[18]; Klebsiella pneumoniae, 13912, 20 h, read-out: MIC",800 µg/mL
same,FIC,Escherichia coli 1341-35; in 1:1 mixture C,0.250
same,MIC,"Escherichia coli 1341-35; Escherichia coli, 134135, 20 h, read-out: MIC",100 µg/mL
same,FIC,[19]; in 1:1 mixture C,0.250
same,MIC,"[19]; Klebsiella pneumoniae, 13913, 20 h, read-out: MIC",800 µg/mL
same,FIC,Escherichia coli 1341-27; in 1:1 mixture C,0.250
same,MIC,"Escherichia coli 1341-27; Escherichia coli, 134127, 20 h, read-out: MIC",100 µg/mL
same,FIC,[20]; in 1:1 mixture C,0.250
same,MIC,"[20]; Pseudomonas aeruginosa, 110166, 20 h, read-out: MIC",100 µg/mL
same,FIC,"[21]; in 1:1 mixture C, from ED50",0.083
same,ED50,[21]; [31],15.0 mg/mouse
same,FIC,"[22]; in 1:1 mixture C, from ED50",0.273
same,ED50,[22]; [31],1.3 mg/mouse
same,MIC,"[3]; S. typhimurium 1406, read-out: MIC",25 µg/mL
same,MIC,[4]; [30],25 µg/mL
same,FIC,[23]; in 1:1 mixture C,0.125
same,MIC,"[23]; Pseudomonas aeruginosa, 110163, 20 h, read-out: MIC",400 µg/mL
same,FIC,[24]; in 1:1 mixture C,0.063
same,MIC,"[24]; Serratia marcescens, 14214, broth, 20 h, read-out: MIC",400 µg/mL
same,FIC,[25]; in 1:1 mixture C,0.063
same,MIC,"[25]; Klebsiella pneumoniae, 13911, 20 h, read-out: MIC",800 µg/mL
same,FIC,[26]; in 1:1 mixture C,0.125
same,MIC,"[26]; Serratia marcescens, 14213, 20 h, read-out: MIC",400 µg/mL
same,FIC,[27]; in 1:1 mixture C,0.063
same,MIC,"[27]; Serratia marcescens, 14211, 20 h, read-out: MIC",100 µg/mL
same,MIC,"[6]; Proteus mirabilis, 143275, 20 h",3.13 µg/mL
"Cc1nnc(SCC2=C(C(=O)O)N3C(=O)[C@@H](NC(=O)Cn4cnnn4)[C@H]3SC2)s1 [B (Table 3), cefazolin]",MIC,[1],12.5 µg/mL
same,MIC,Proteus vulgaris 7,100 µg/mL
same,MIC,[2],1.56 µg/mL
same,MIC,Proteus morganii 1433-2,25 µg/mL
same,MIC,"[4]; Serratia marcescens, 14214, S. marcescens 1421-4, agar, 20 h, read-out: MIC",400 µg/mL
same,MIC,[28],3.13 µg/mL
same,MIC,[9],0.39 µg/mL
same,MIC,"[11]; Enterobacter cloacae, 14014, 20 h, read-out: MIC",≥ 400 µg/mL
same,MIC,[29],≥ 400 µg/mL
same,MIC,Citrobacter freundii 35,50 µg/mL
same,MIC,Proteus rettgeri 1434-3,6.25 µg/mL
